Read-outs that look alike come from different tables or passages of the source.
Columns and labels:
[1] = 20 mcg/mL, tromethamine 10 mg/mL, normal saline
Protocol: Separate samples containing levothyroxine sodium at a concentration of 20 mcg/mL, tromethamine at a concentration of 10 mg/mL in normal saline (0.9% NaCl in water) were adjusted to various pH levels. One sample additionally contained hydroxypropyl (HP) β-cyclodextrin at a concentration of 10 mg/mL. 5 mL of each sample was filled into 10 cc amber tubing vials, and the vials were stoppered with 20 mm stoppers under nitrogen. The samples were stored at temperatures of 25° C., 40° C. and 55° C. The samples stored at 55° C. were analyzed by HPLC at 1 and 4 weeks (W) of storage. The samples stored at 40° C. were analyzed by HPLC at 4 W and 3 months (M) of storage. The samples stored at 25° C. were analyzed by HPLC at 3M of storage.
The HPLC conditions were as follows: • Column: Waters […]™ C8 (5 μm, 4.6×150 mm) HPLC column • Mobile Phase A: Sodium heptanesulfonate/Acetonitrile/Water/Methanol/H3PO4 (4.023 g/800 mL/1600 mL/1600 mL/4 mL) • Mobile Phase B: Sodium heptanesulfonate/Acetonitrile/Water/Methanol/H3PO4 (2.013 g/1000 mL/100 mL/900 mL/2 mL) • Diluent: 0.01 N NaOH • Column temperature: 25° C. • Flow rate: 1.5 mL/min • Injection volume: 40-200 μL • Autosampler temperature: 5° C. • Detection: UV at 225 nm • Separation mode: Gradient Gradient Program: […]
The results for liothyronine, largest unknown impurity, and total impurities as determined by peak area percent are set forth in Table 1.

[2] = tromethamine 10 mg/mL, normal saline
Protocol: The HPLC conditions were as follows: • Column: Waters […]™ C8 (5 μm, 4.6×150 mm) HPLC column • Mobile Phase A: Sodium heptanesulfonate/Acetonitrile/Water/Methanol/H3PO4 (4.023 g/800 mL/1600 mL/1600 mL/4 mL) • Mobile Phase B: Sodium heptanesulfonate/Acetonitrile/Water/Methanol/H3PO4 (2.013 g/1000 mL/100 mL/900 mL/2 mL) • Diluent: 0.01 N NaOH • Column temperature: 25° C. • Flow rate: 1.5 mL/min • Injection volume: 40-200 μL • Autosampler temperature: 5° C. • Detection: UV at 225 nm • Separation mode: Gradient Gradient Program:
The effect of pH on levothyroxine stability was further tested in samples having a pH 9.5-11.5. Separate samples containing levothyroxine sodium at a concentration of 20 mcg/mL or 100 mcg/mL, tromethamine at a concentration of 10 mg/mL in normal saline were adjusted to various pH levels. 5 mL of each sample was filled into 10 cc amber tubing vials, and the vials were stoppered with 20 mm stoppers under nitrogen. The samples were stored at temperatures of 25° C., 40° C., and 55° C. The samples stored at 55° C. were analyzed by HPLC at 1 W and 2 W of storage. The samples stored at 25° C. and 40° C. were analyzed by HPLC at 2M of storage using the HPLC conditions described hereinabove.

[3] = 55° C., 1 W, pH 9, HP-β-cyclodextrin 10 mg/mL
[4] = 25° C., 2 M, pH 10.4, 20 mcg/mL
[5] = 25° C., 2 M, pH 10.4, 100 mcg/mL
[6] = 25° C., 2 M, pH 11.5, 20 mcg/mL
[7] = 40° C., 2 M, pH 10.4, 20 mcg/mL
[8] = 40° C., 2 M, pH 10.4, 100 mcg/mL
[9] = 40° C., 2 M, pH 11.5, 20 mcg/mL
[10] = 55° C., 1 W, pH 10.4, 20 mcg/mL
[11] = 55° C., 1 W, pH 10.4, 100 mcg/mL
[12] = 55° C., 1 W, pH 11.5, 20 mcg/mL
[13] = 55° C., 2 W, pH 10.4, 20 mcg/mL
[14] = 55° C., 2 W, pH 10.4, 100 mcg/mL
[15] = 55° C., 2 W, pH 11.5, 20 mcg/mL

Compound: N[C@@H](Cc1cc(I)c(Oc2cc(I)c(O)c(I)c2)c(I)c1)C(=O)[O-].[Na+] [Levothyroxine Na, 4-(4-hydroxy-3,5-diiodophenoxy)-3,5-diiodo-L-phenylalanine sodium]
- % Liothyronine ([1]; 25° C., 3 M, pH 9.5): 0.6%
- % largest unknown impurity ([1]; 25° C., 3 M, pH 9.5): 0.46%
- % total impurities ([1]; 25° C., 3 M, pH 9.5): 1.51%
- % Liothyronine ([1]; 25° C., 3 M, pH 10): 0.35%
- % largest unknown impurity ([1]; 25° C., 3 M, pH 10): 0.11%
- % total impurities ([1]; 25° C., 3 M, pH 10): 0.71%
- % largest unknown impurity ([1]; 40° C., 3 M, pH 9.5): 0.48%
- % total impurities ([1]; 40° C., 3 M, pH 9.5): 2.66%
- % largest unknown impurity ([1]; 40° C., 3 M, pH 10): 0.16%
- % total impurities ([1]; 40° C., 3 M, pH 10): 1.35%
- % Liothyronine ([1]; 40° C., 4 W, pH 9.5): 0.9%
- % largest unknown impurity ([1]; 40° C., 4 W, pH 9.5): 0.12%
- % total impurities ([1]; 40° C., 4 W, pH 9.5): 1.7%
- % Liothyronine ([1]; 40° C., 4 W, pH 10): 0.4%
- % largest unknown impurity ([1]; 40° C., 4 W, pH 10): 0.12%
- % total impurities ([1]; 40° C., 4 W, pH 10): 0.6%
- % Liothyronine ([1]; 55° C., 1 W, pH 8): 15.2%
- % largest unknown impurity ([1]; 55° C., 1 W, pH 8): 1.59%
- % total impurities ([1]; 55° C., 1 W, pH 8): 17.5%
- % Liothyronine [1, 3]: 2.7%
- % largest unknown impurity [1, 3]: 0.86%
- % total impurities [1, 3]: 4.0%
- % Liothyronine ([1]; 55° C., 1 W, pH 9): 2.7%
- % largest unknown impurity ([1]; 55° C., 1 W, pH 9): 0.67%
- % total impurities ([1]; 55° C., 1 W, pH 9): 3.6%
- % Liothyronine ([1]; 55° C., 1 W, pH 9.5): 1.2%
- % largest unknown impurity ([1]; 55° C., 1 W, pH 9.5): 0.50%
- % total impurities ([1]; 55° C., 1 W, pH 9.5): 2.2%
- % Liothyronine ([1]; 55° C., 1 W, pH 10): 0.6%
- % largest unknown impurity ([1]; 55° C., 1 W, pH 10): 0.27%
- % total impurities ([1]; 55° C., 1 W, pH 10): 1.5%
- % largest unknown impurity ([1]; 55° C., 4 W, pH 9.5): 0.09%
- % total impurities ([1]; 55° C., 4 W, pH 9.5): 2.1%
- % Liothyronine ([1]; 55° C., 4 W, pH 10): 3.1%
- % largest unknown impurity ([1]; 55° C., 4 W, pH 10): 0.55%
- % total impurities ([1]; 55° C., 4 W, pH 10): 4.2%
- % Liothyronine ([2]; 25° C., 2 M, pH 9.5, 20 mcg/mL): 0.34%
- % largest unknown impurity ([2]; 25° C., 2 M, pH 9.5, 20 mcg/mL): 0.11%
- % total impurities ([2]; 25° C., 2 M, pH 9.5, 20 mcg/mL): 0.7%
- % Liothyronine [2, 4]: 0.17%
- % largest unknown impurity [2, 4]: 0.20%
- % total impurities [2, 4]: 0.6%
- % Liothyronine [2, 5]: 0.23%
- % largest unknown impurity [2, 5]: 0.11%
- % total impurities [2, 5]: 0.6%
- % Liothyronine [2, 6]: 0.34%
- % largest unknown impurity [2, 6]: 15.4%
- % total impurities [2, 6]: 19.6%
- % Liothyronine ([2]; 40° C., 2 M, pH 9.5, 20 mcg/mL): 1.00%
- % largest unknown impurity ([2]; 40° C., 2 M, pH 9.5, 20 mcg/mL): 0.14%
- % total impurities ([2]; 40° C., 2 M, pH 9.5, 20 mcg/mL): 1.44%
- % Liothyronine [2, 7]: 0.38%
- % largest unknown impurity [2, 7]: 0.22%
- % total impurities [2, 7]: 0.88%
- % Liothyronine [2, 8]: 0.49%
- % largest unknown impurity [2, 8]: 0.10%
- % total impurities [2, 8]: 0.8%
- % Liothyronine [2, 9]: 0.31%
- % largest unknown impurity [2, 9]: 9.2%
- % total impurities [2, 9]: 12.1%
- % Liothyronine ([2]; 55° C., 1 W, pH 9.5, 20 mcg/mL): 0.9%
- % largest unknown impurity ([2]; 55° C., 1 W, pH 9.5, 20 mcg/mL): 0.09%
- % total impurities ([2]; 55° C., 1 W, pH 9.5, 20 mcg/mL): 1.2%
- % Liothyronine [2, 10]: 0.2%
- % largest unknown impurity [2, 10]: 0.09%
- % total impurities [2, 10]: 0.5%
- % Liothyronine [2, 11]: 0.3%
- % largest unknown impurity [2, 11]: 0.11%
- % total impurities [2, 11]: 0.7%
- % Liothyronine [2, 12]: 0.1%
- % largest unknown impurity [2, 12]: 0.08%
- % total impurities [2, 12]: 0.4%
- % Liothyronine ([2]; 55° C., 2 W, pH 9.5, 20 mcg/mL): 1.9%
- % largest unknown impurity ([2]; 55° C., 2 W, pH 9.5, 20 mcg/mL): 0.1%
- % total impurities ([2]; 55° C., 2 W, pH 9.5, 20 mcg/mL): 2.0%
- % Liothyronine [2, 13]: 0.4%
- % largest unknown impurity [2, 13]: 0.1%
- % total impurities [2, 13]: 0.9%
- % Liothyronine [2, 14]: 0.8%
- % largest unknown impurity [2, 14]: 0.11%
- % total impurities [2, 14]: 1.1%
- % Liothyronine [2, 15]: 0.2%
- % largest unknown impurity [2, 15]: 0.1%
- % total impurities [2, 15]: 0.4%
